Some test systems named below: Malme-3M; COLO 205; RXF 393; UACC-257; T47D; Hs-578T; OVCAR-5; MOLT-4; RPMI-8226; SK-MEL-28; SNB-19; NCI-H23; A498; OVCAR-3; CCRF-CEM; UACC-62; IGROV-1; EKVX; HT-29; NCI-H522.
What all share (assay): DTP human tumour cell line panel, 48 h

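Protocol summary: plate cells (96-well), add compound at 5 concentrations, incubate 48 h, interpolate endpoints linearly. At the GI50, growth is halved.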 Active and inactive are the calls of the source. Cut-off read from the data, not from the text of the source: active = GI50 up to about 1.1 µM and inactive = higher.

Turning to `CCC/C=C/c1cc2c(cc1O)CC[C@@H]1[C@@H]2CC[C@]2(C)[C@@H](O)CC[C@@H]12`, the GI50 – broadly, the concentration giving 50% growth inhibition – is 16.5 µM (inactive) in the assay on Malme-3M; 19.1 µM (inactive) in the assay on COLO 205; 16.3 µM (inactive) with RXF 393; 15.8 µM (inactive) with UACC-257; 24.9 µM (inactive) in the assay on T47D; 21.7 µM (inactive) in the assay with Hs-578T. Also, the GI50 with OVCAR-5 is 18.4 µM (inactive); in the assay with MOLT-4 it was 18.3 µM (inactive); in the assay on RPMI-8226 it was 14 µM (inactive); in the assay with SK-MEL-28, 19.3 µM (inactive); in the assay with SNB-19, 23.6 µM (inactive); in the assay with NCI-H23 it was 17.5 µM (inactive). In addition, the GI50 was 17.2 µM (inactive) in the assay on A498; 19.2 µM (inactive) in the assay with OVCAR-3; 12 µM (inactive) in the assay with CCRF-CEM; 14.5 µM (inactive) in the assay on UACC-62; 21.1 µM (inactive) with IGROV-1; 19.2 µM (inactive) in the assay on EKVX. The GI50 with HT-29 was 18.4 µM (inactive); in the assay on NCI-H522 it was 17.3 µM (inactive).

Take `O=C1c2ccccc2C(=O)c2c1oc1cc(O)c(Cl)cc21`: the GI50 is 1.07 µM (active) with Malme-3M; 1.72 µM (inactive) with COLO 205; 9.46 µM (inactive) with RXF 393; 2.33 µM (inactive) with UACC-257; 16.5 µM (inactive) in the assay on T47D; 2.29 µM (inactive) in the assay with Hs-578T. In addition, the GI50 is 11.2 µM (inactive) with OVCAR-5; 12.3 µM (inactive) in the assay with MOLT-4; 4.54 µM (inactive) in the assay on RPMI-8226; 3.05 µM (inactive) in the assay on SK-MEL-28; 8.81 µM (inactive) in the assay on SNB-19; 0.519 µM (active) in the assay with NCI-H23. In addition, the GI50 in the assay on A498 was 19.7 µM (inactive); with OVCAR-3, 2.61 µM (inactive); in the assay with CCRF-CEM, 8.71 µM (inactive); in the assay with UACC-62, 1.93 µM (inactive); in the assay on IGROV-1, 10.1 µM (inactive); in the assay on EKVX it was 8.75 µM (inactive). In addition, the GI50 in the assay with HT-29 was 1.95 µM (inactive); in the assay with NCI-H522, 9.42 µM (inactive).

Consider `Oc1c(O)c(Cc2ccccc2)c(Cc2ccccc2)c(Cc2ccccc2)c1Cc1ccccc1`, for which the GI50 with Malme-3M, in the assay on COLO 205, in the assay with RXF 393, in the assay on UACC-257, with T47D and in the assay with Hs-578T was > 10 µM (inactive) in each case. The GI50 with OVCAR-5, in the assay on MOLT-4, in the assay with RPMI-8226, with SK-MEL-28, with SNB-19 and with NCI-H23 was > 10 µM (inactive) in each case. The GI50 in the assay on A498, in the assay with OVCAR-3, with CCRF-CEM, in the assay on UACC-62, in the assay on IGROV-1 and in the assay with EKVX was > 10 µM (inactive) in each case. Further, the GI50 with HT-29 and in the assay with NCI-H522 was > 10 µM (inactive) throughout.

With `NCCC1CN(C(=O)OCc2ccccc2)c2ccccc21` (configuration not stated), the GI50 with Malme-3M was 14.8 µM (inactive); with COLO 205, 16.3 µM (inactive); with RXF 393, 8.45 µM (inactive); with UACC-257 it was 17.3 µM (inactive); in the assay on T47D it was 3.13 µM (inactive); in the assay with Hs-578T, 26.2 µM (inactive). For the same molecule, the GI50 in the assay with OVCAR-5 is 17.1 µM (inactive); in the assay on MOLT-4, 12 µM (inactive); in the assay on RPMI-8226, 12.8 µM (inactive); in the assay on SK-MEL-28, 18.6 µM (inactive); in the assay on SNB-19, 19.5 µM (inactive); in the assay on NCI-H23, 15 µM (inactive). The GI50 was > 37.2 µM (inactive) with A498; 16.7 µM (inactive) with OVCAR-3; 15.6 µM (inactive) with UACC-62; 9.48 µM (inactive) in the assay on IGROV-1; 20.2 µM (inactive) in the assay with EKVX; 12.5 µM (inactive) in the assay on HT-29. Moreover, the GI50 with NCI-H522 is 14.5 µM (inactive).

As to `Cc1ccc([N+](=O)[O-])cc1S(=O)(=O)Nc1ccc(C2=NOC(c3ccccc3)C2)cc1` (configuration not stated), the GI50 in the assay on Malme-3M is 8.63 µM (inactive); in the assay on COLO 205, 6.7 µM (inactive); in the assay with RXF 393, 1.82 µM (inactive); in the assay on UACC-257, 14.7 µM (inactive); in the assay with T47D, 5.77 µM (inactive); in the assay with Hs-578T, 19.8 µM (inactive). Further, the GI50 was 25.4 µM (inactive) in the assay on OVCAR-5; 2.61 µM (inactive) in the assay on MOLT-4; 4.7 µM (inactive) in the assay with RPMI-8226; 18.7 µM (inactive) with SK-MEL-28; 10.1 µM (inactive) in the assay with SNB-19; 14.5 µM (inactive) in the assay with NCI-H23. For the same molecule, the GI50 with A498 is 4.03 µM (inactive); in the assay on OVCAR-3, 3.33 µM (inactive); in the assay with CCRF-CEM, 9.48 µM (inactive); in the assay with UACC-62, 3.85 µM (inactive); with IGROV-1, 5.48 µM (inactive); in the assay with EKVX it was 17.7 µM (inactive). Further, the GI50 with HT-29 was 6.78 µM (inactive); in the assay with NCI-H522, 3.27 µM (inactive).

On to `COC1CC(C)(N)C(O)C(C)O1` (configuration not stated), for which the GI50 in the assay on Malme-3M, in the assay on COLO 205, in the assay on RXF 393, in the assay with UACC-257, with T47D and in the assay on Hs-578T was > 100 µM (inactive) in each case. Besides, the GI50 in the assay on MOLT-4, with RPMI-8226, in the assay with SK-MEL-28, with SNB-19, in the assay on NCI-H23 and in the assay with A498 was > 100 µM (inactive) in each case. Further, the GI50 with OVCAR-3, with CCRF-CEM, in the assay with UACC-62, with IGROV-1, with EKVX and in the assay on HT-29 was > 100 µM (inactive) throughout. Further, the GI50 in the assay with NCI-H522 is > 100 µM (inactive).

In the case of `Cc1ccc(C2=Nn3c(nc4sc(C)c(C)c4c3=O)SC2)cc1`, the GI50 in the assay with Malme-3M, in the assay on COLO 205, in the assay on RXF 393, in the assay on UACC-257, in the assay on T47D and in the assay on Hs-578T was > 100 µM (inactive) throughout. The GI50 with OVCAR-5, with MOLT-4, with RPMI-8226, in the assay with SK-MEL-28, with NCI-H23 and with A498 was > 100 µM (inactive) in each case. Moreover, the GI50 in the assay on OVCAR-3 was > 100 µM (inactive); in the assay on CCRF-CEM it was > 10 µM (inactive); in the assay on UACC-62 it was > 100 µM (inactive); with IGROV-1, > 100 µM (inactive); with EKVX, > 100 µM (inactive); in the assay with HT-29 it was > 100 µM (inactive). Moreover, the GI50 in the assay with NCI-H522 is > 100 µM (inactive).

For the molecule `CC(C)/C=N\n1c(N)c(C#N)c(C#N)c1C(C)C`, the GI50 in the assay with Malme-3M was 22.8 µM (inactive); with COLO 205 it was 18.7 µM (inactive); in the assay on RXF 393, 18.1 µM (inactive); with UACC-257 it was 14.7 µM (inactive); in the assay with T47D, 16.5 µM (inactive); in the assay on Hs-578T, 20.4 µM (inactive). For the same molecule, the GI50 in the assay on OVCAR-5 is 21.7 µM (inactive); in the assay on MOLT-4, 13.5 µM (inactive); in the assay on RPMI-8226 it was 14.6 µM (inactive); in the assay on SNB-19, 34.9 µM (inactive); with NCI-H23 it was 24 µM (inactive); in the assay with A498, 17.5 µM (inactive). Also, the GI50 with OVCAR-3 is 11.7 µM (inactive); in the assay with CCRF-CEM, 19.9 µM (inactive); with UACC-62, 12.3 µM (inactive); in the assay on IGROV-1 it was 18.3 µM (inactive); with EKVX it was 20.4 µM (inactive); in the assay on HT-29, 33.3 µM (inactive). The GI50 in the assay with NCI-H522 is 19.3 µM (inactive).

With `N#Cc1cnc(-n2[nH]c3c(c2=O)CCCC3)[nH]c1=O`, the GI50 is 50 µM (inactive) with Malme-3M; 38.5 µM (inactive) in the assay with COLO 205; > 100 µM (inactive) in the assay on RXF 393; 55 µM (inactive) with UACC-257; > 100 µM (inactive) in the assay on T47D; > 100 µM (inactive) with Hs-578T. Also, the GI50 in the assay with OVCAR-5 was 74.6 µM (inactive); in the assay with MOLT-4 it was 44.5 µM (inactive); in the assay with RPMI-8226 it was 88.3 µM (inactive); in the assay on SK-MEL-28, 55.2 µM (inactive); in the assay with SNB-19 it was > 100 µM (inactive); in the assay with NCI-H23, 54.3 µM (inactive). Further, the GI50 in the assay on A498 is 59 µM (inactive); in the assay on CCRF-CEM, 31.9 µM (inactive); in the assay with UACC-62, 38.6 µM (inactive); with IGROV-1 it was > 100 µM (inactive); in the assay with EKVX, 37.6 µM (inactive); in the assay with HT-29, 41.2 µM (inactive). Further, the GI50 with NCI-H522 was 57.3 µM (inactive).

Turning to `OCC(O)C(O)C(C=NNc1ncnc2ccc(Br)cc12)=NNc1ncnc2ccc(Br)cc12` (configuration not stated), the GI50 in the assay with Malme-3M is 0.378 µM (active); in the assay on COLO 205, 0.255 µM (active); in the assay with RXF 393, 2.14 µM (inactive); in the assay with UACC-257 it was 3.1 µM (inactive); with T47D, 0.373 µM (active); in the assay with Hs-578T, 9.62 µM (inactive). Also, the GI50 with OVCAR-5 is 3.58 µM (inactive); in the assay on MOLT-4, 0.258 µM (active); with RPMI-8226 it was 1.19 µM (inactive); in the assay on SK-MEL-28 it was 1.45 µM (inactive); with SNB-19, 2.17 µM (inactive); with A498, 4.23 µM (inactive). The GI50 in the assay with OVCAR-3 was 0.339 µM (active); with IGROV-1, 0.726 µM (active); in the assay with EKVX it was 0.406 µM (active); in the assay with HT-29, 0.556 µM (active); in the assay on NCI-H522, 0.383 µM (active).

Values taken from ChEMBL document CHEMBL1201862, “PubChem BioAssay data set” (2004).
